Assay results published in patent US20190336537A1, “GENERATING ATRIAL AND VENTRICULAR CARDIOMYOCYTE LINEAGES FROM HUMAN PLURIPOTENT STEM CELLS” (UNIVERSITY HEALTH NETWORK, priority 2016, published 2019).

Experiments:
[1] = test system: MSC-iPS1 induced pluripotent stem cell line derived EBs; assay: ROH/RA response of MSC-iPS1-derived EBs (day 20 flow cytometry and qRT-PCR); format: cell-based, human; conditions: treated days 3 to 5
Source text: (§1) To determine if the approach for optimizing atrial and ventricular differentiation based on ALDH activity and CD235a expression is broadly applicable, we next used it to generate these cardiomyocyte populations from the HES2 human embryonic stem cell and the MSC-iPS1 induced pluripotent stem cell lines. Titration studies identified 5B/2A and 5B/6A as optimal for atrial and ventricular inductions, respectively, for HES2 cells and 4B/4A as optimal for ventricular induction for MSCiPSC1 cells (FIGS. 7A, 7B, 7E, and 7F; Mendeley http://dx.doi.org/10.17632/7z7d5v2c3w.1). Optimization of atrial induction from the MSC-iPSC1 cells was more challenging, as all cytokine combinations promoted the development of a substantial CD235a+ population. One interpretation of these patterns is that the MSC-iPS1 cells have a high level of endogenous Nodal/Activin A signaling, resulting in the development of some CD235a+ cells under all conditions. To test this, we added the Nodal/Activin A/transforming growth factor beta (TGF-beta) inhibitor SB-431542 (SB) from days 3 to 5 to cells induced with 4B/1A.
(§2) For cardiac differentiation, we used a modified version of our embryoid body (EB)-based protocol (Kattman et al., 2011). hPSC populations at 80%-90% confluence were dissociated into single cells (TrypLE, ThermoFisher) and re-aggregated to form EBs in StemPro-34 media (ThermoFisher) containing penicillin/streptomycin (1%, ThermoFisher), L-glutamine (2 mM, ThermoFisher), trans-ferrin (150 μg/ml, ROCHE), ascorbic acid (50 μg/ml, Sigma), and monothioglycerol (50 μg/ml, Sigma), ROCK inhibitor Y-27632 (10 μM, TOCRIS) and rhBMP4 (1 ng/ml, R&D) for 18 h on an orbital shaker. At day 1, the EBs were transferred to mesoderm induction media consisting of StemPro-34 with above supplements (-ROCK inhibitor Y-27632) and rhBMP4, rhActivinA (R&D) and rhbFGF (5 ng/ml, R&D) at the indicated concentrations. At day 3, the EBs were harvested, washed with IMDM and transferred to cardiac mesoderm specification media consisting of StemPro-34, the Wnt inhibitor IWP2 (1 μM, TOCRIS) and rhVEGF (10 ng/mL, R&D). At day 5, the EBs were transferred to Stem Pro-34 with rhVEGF (5 ng/ml) for another 7 days and then to Stem Pro-34 media without additional cytokines for further 8 days. At day 20, HES3-NKX2-5gfp/w-derived cardiomyocytes were analyzed and isolated based on the expression of NKX2-5:GFP and SIRPa and a lack of CD90. Cardiomyocytes generated from non-transgenic hPSC lines were analyzed and isolated as SIRPa+CD90− populations. Media was changed every 3 days. Cultures were incubated in a low oxygen environment (5% CO2, 5% O2, 90% N2) for first 12 days and a normoxic environment (5% CO2) for the following 8 days in total of 20 days. […]

[2] = test system: HES3 NKX2-5:GFP reporter hESC line derived cardiomyocytes; assay: qRT-PCR analysis of atrial and ventricular gene expression in day 20 hPSC-derived cardiomyocytes; format: cell-based, human
[3] = test system: HES2 human embryonic stem cell derived EBs; assay: ROH/RA response of HES2-derived EBs (day 20 flow cytometry and qRT-PCR); format: cell-based; conditions: treated days 3 to 5
Source text: as §1, §2

Structure (SMILES): CC1=C(/C=C/C(C)=C/C=C/C(C)=C/C(=O)O)C(C)(C)CCC1 [RA, all trans retinoic acid]
- response of ALDH+ mesoderm (atrial expression profile) ([1]; MSC-iPS1, 4B/1A+SB induced): responded to both ROH and RA
- response of CD235a+ mesoderm (MLC2V content, MYL2, IRX4, KCNJ3, NR2F2) ([1]; MSC-iPS1, 4B/4A induced): both responded to RA
- expression of KCNJ3, CACNA1D and NR2F2 in VI versus AI cardiomyocytes ([2]; 4 mM RA): Comparable expression levels
- expression of ventricular genes MYL2 and IRX4 in the VI population ([2]; RA 1-2 mM): completely suppress
- expression of MYL2 and KCNJ3 ([2]; RA added at later stages (days 7 and 12)): no effect
- expression level of KCNA5 in cardiomyocytes from VI EBs ([2]; RA increased from 0.5 to 1-2 mM): did increase
- expression of KCNJ3, CACNA1D and NR2F2 in VI cardiomyocytes to levels of AI cells ([2]; RA up to 2 mM): failed to increase
- response of ALDH+ mesoderm (atrial expression profile) ([3]; HES2, 5B/2A induced): responded to both ROH and RA
- response of CD235a+ mesoderm (MLC2V content, MYL2, IRX4, KCNJ3, NR2F2) ([3]; HES2, 5B/6A induced): both responded to RA
